Key:
[1] = intracerebroventricular infusion at concentrations 1,000 times higher than that of AII; cited from earlier work
[2] = cited from earlier work
[3] = test system: full thickness dermal wounds; experiment: Wound closure by analogs of AII and AIII, Table 4 (Example 7); format: in vivo, Sprague Dawley rats; settings: percentage of vehicle-treated control wound, method of Example 6 (100 μg/wound, days 0-4)
Description: Female Sprague Dawley rats weighing 175-200 grams were obtained from Simonsen Laboratories (Gilroy, Calif.). On the day of surgery, rats received intramuscular ketamine/rompum anesthesia prior to preparation for surgery. The rats were shaved and scrubbed with betadine. Two 1.5×1.5 cm full thickness dermal wounds were created on the dorsal surface of each rat. Following excision of the skin, the size of the wound was outlined on a glass slide to establish the baseline wound size. The medicament was administered in 100 μl of 10% low viscosity carboxymethyl cellulose (Sigma). The p-NH2 -Phe6-AII test material was administered in a randomized fashion with all materials being tested at 100 μg/wound. Control wounds were treated with vehicle only. After administration of the materials, the rats were bandaged and allowed to recovery from anesthesia. The rats were treated with an additional 100 μg of peptide formulation on days 1-4 after surgery. On days 2, 4, 7 and 9 the area of the skin wounds were measured under methoxyflurane anesthesia. The area of the wound was determined by: (1) tracing the wound shape onto graph paper (1×1 mm squares); (2) cutting out the shape; (3) weighing the paper and comparing the weight with a 1.5×1.5 cm paper cutout; and (4) counting the number of squares on the graph paper. In addition, on days 2, 4 and 7 the area of granulation tissue was similarly determined.
Analogs of AII and AIII having the structures disclosed in Table 4 were prepared using an automated peptide synthesizer and methods familiar to those having ordinary skill in the art. Each of the analogs was tested for its ability to accelerate wound healing essentially according to the method of Example 6. Results of procedures used to determine the extent of wound closure at days 4 and 9 measured as a percentage of a vehicle-treated control wound are also presented in Table 4. Since all of the analogs were not tested during the same experimental procedure, AII was included as a positive control for each group of peptides tested. As designated below, peptide analogs are identified as analogs of AII or AIII having amino acid substitutions at positions indicated by superscripts. Thus, for example, Gly^4 -AIII is the designation for an AIII analog having a Gly residue substituted at position 4 of AIII. Results from procedures using analogs that were tested as a group are grouped together in the following Table.

[4] = test system: rat carotid artery; settings: cited from earlier work; for neointimal formation: similar model, Janiak et al. 1992, CGP 42112 infused perivascularly 14 days, losartan low doses
[5] = test system: full thickness dermal wounds; experiment: Healing of full thickness dermal wounds with AIII (Example 3); format: in vivo, Sprague Dawley rats; settings: 2×2 cm wounds; 3 μg and 10 μg dosages; FIG. 8
Description: Twelve week old male Sprague Dawley rats were obtained from Simonsen Laboratories (Gilroy, Calif.). On the date of surgery, rats received intramuscular ketamine/rompum anesthesia prior to preparation for surgery. The rats were shaved and scrubbed with betadine. Four 2×2 cm full thickness dermal wounds were created on the dorsal surface of the rat. Following excision of the skin, the size of the wound was outlined on a glass slide to establish the baseline wound size. The medicament was administered in 100 μl of a solution comprising 10% HYDRON, 1% polyethylene glycol (MW 400) and 60% ethanol. Test materials were administered in a randomized fashion. AIII was evaluated at 3 and 10 μg/wound. Controls were treated with vehicle only. After administration of the materials, the rats were bandaged and allowed to recover from anesthesia. At days 2, 5, 6, 8 and 10 the area of the skin wounds were measured under methoxyflurane anesthesia. The area of the wound was determined by: (1) tracing the wound shape onto graph paper (1×1 mm squares); (2) cutting out the shape; (3) weighing the paper and comparing the weight with a 2×2 cm paper cutout; and (4) counting the number of squares.

[6] = test system: aminopeptidase; settings: reported in literature; cited from earlier work

Compound: Ile-His-Pro-Phe (IHPF; printed: Ile-His-Pro-Phe) [AII(5-8)]
- effect on blood pressure [1]: minimal effect on blood pressure

Compound: Asp-Arg-Val-Tyr-Ile-His-Pro (DRVYIHP; printed: Asp-Arg-Val-Tyr-Ile-His-Pro) [AII(1-7)]
- amount needed for pressor response comparable to AII ([2]; Benter et al. 1993): about 10,000 times
- dose effective on blood pressure relative to the dose of AII ([2]; depending on model and route of administration): 10,000-100,000 times

Compound: homoSer^4 -AII [GSD41B]
- extent of wound closure, % Control (Day 4) [3]: 77.6%
- extent of wound closure, % Control (Day 9) [3]: 55.8%

Compound: CCCCc1nc(Cl)c(CO)n1Cc1ccc(-c2ccccc2-c2nn[nH]n2)cc1 [losartan]
- decrease of intimal area ([4]; Pratt et al. 1992): 95%
- neointimal formation, higher doses ([4]; other studies, losartan at higher doses): effective
- neointimal formation [4]: ineffective

Compound: CC[C@H](C)[C@H](NC(=O)[C@H](Cc1ccc(O)cc1)NC(=O)[C@@H](NC(=O)[C@@H](N)CCCNC(=N)N)C(C)C)C(=O)N[C@@H](Cc1c[nH]cn1)C(=O)N1CCC[C@H]1C(=O)N[C@@H](Cc1ccccc1)C(=O)O [AIII, Arg-Val-Tyr-Ile-His-Pro-Phe]
- wound closure relative to vehicle-treated control [5]: substantially accelerated

Compound: Asp-Arg-Val-Tyr(PO3)2 -Ile-His-Pro-Phe [[Tyr(PO3)2]^4 -AII]
- extent of wound closure, % Control (Day 4) [3]: 81.3%
- extent of wound closure, % Control (Day 9) [3]: 61.9%

Compound: Cc1cc(Cn2cnc3c2C[C@@H](C(=O)O)N(C(=O)C(c2ccccc2)c2ccccc2)C3)ccc1N(C)C [PD 123319]
- reduction of intimal hyperplasia ([4]; Pratt et al. 1992): 73%

Compound: CC[C@H](C)[C@H](NC(=O)[C@H](Cc1ccc(O)cc1)NC(=O)[C@@H](NC(=O)[C@H](CCCNC(=N)N)NC(=O)CNC)C(C)C)C(=O)N[C@@H](Cc1cnc[nH]1)C(=O)N1CCC[C@H]1C(=O)N[C@@H](Cc1ccccc1)C(=O)O [Analog 4, Sar-Arg-Val-Tyr-Ile-His-Pro-Phe]
- cleavage by aminopeptidase [6]: resistant to cleavage by aminopeptidase

Compound: CGP 42112
- neointimal formation [4]: prevented neointimal formation

From patent publication US6110895A, “Method of promoting healing in skin grafts” (University of Southern California, priority 1997, dated 2000)
